Reference: ChEMBL document CHEMBL1921708, “Klymollins A-H, bioactive eunicellin-based diterpenoids from the formosan soft coral Klyxum molle” (J Nat Prod, 2011)

Columns and labels:
HeLa = assay: Cytotoxicity against human HeLa cells; format: cell-based
MCF7 = assay: Cytotoxicity against human MCF7 cells; format: cell-based
RAW264.7 [1] = assay: Antiinflammatory activity in LPS-stimulated mouse RAW264.7 cells assessed as reduction in iNOS protein expression at 10 uM by immunoblot analysis; format: functional; parameters: scale not given: the % may be the effect or the level left
HEp-2 = assay: Cytotoxicity against human Hep2 cells; format: cell-based
Daoy = assay: Cytotoxicity against human DaOY cells; format: cell-based
RAW264.7 [2] = assay: Antiinflammatory activity in LPS-stimulated mouse RAW264.7 cells assessed as reduction in COX2 protein expression at 10 uM by immunoblot analysis; format: functional; parameters: scale not given: the % may be the effect or the level left

What does the source list for `CC(=O)O[C@H]1[C@H](C(C)C)[C@@H]2[C@@H]([C@H]3C[C@](C)(O)[C@@H](OC(C)=O)CC[C@@](C)(OC(C)=O)[C@@H]2O3)[C@]2(CO2)[C@H]1OC(C)=O` (relative stereo)?
Activity (HeLa): Non-toxic; Activity (MCF7): Non-toxic; Activity (RAW264.7 [1]): 25.7%; Activity (HEp-2): Non-toxic; Activity (Daoy): Non-toxic

How did the Activity (HeLa) turn out when `C=C1C[C@H]2O[C@H]([C@H]3[C@@H]2[C@]2(CO2)[C@@H](OC(C)=O)C[C@@H]3C(C)C)[C@](C)(OC(C)=O)CC[C@@H]1O` (relative stereo) was run?
Its Activity is “Non-toxic”.

And the Activity (MCF7)?
The Activity was “Non-toxic”.

What about the Activity (RAW264.7 [1]) of the same molecule?
The Activity was 25.1%.

What about the Activity (HEp-2) of the same molecule?
The Activity was “Non-toxic”.

What about the Activity (Daoy) of the same molecule?
Its Activity is “Non-toxic”.

For `CCCCCCCCCCCCCCCC(=O)O[C@H]1CC[C@@](C)(OC(C)=O)[C@@H]2O[C@H](C[C@]1(C)O)[C@@H]1[C@H]2[C@@H](C(C)C)[C@H](OC(C)=O)[C@H](OC(C)=O)[C@@]12CO2` (relative stereo), which Activity (HeLa) is on record?
The Activity was “Non-toxic”.

And the Activity (MCF7)?
Its Activity is “Non-toxic”.

What about the Activity (RAW264.7 [1]) of the same molecule?
The Activity was 5.2%.

What about the Activity (RAW264.7 [2]) of the same molecule?
The Activity was 4.4%.

What about the Activity (HEp-2) of the same molecule?
The Activity was “Non-toxic”.

What about the Activity (Daoy) of the same molecule?
The Activity was “Non-toxic”.

For `CC(=O)O[C@H]1[C@H](C(C)C)[C@@H]2[C@@H]([C@H]3C[C@H](C)C(=O)CC[C@@](C)(OC(C)=O)[C@@H]2O3)[C@](O)(CCl)[C@H]1OC(C)=O` [KLYMOLLIN B], which Activity (HeLa) is on record?
The Activity was “Non-toxic”.

What about the Activity (MCF7) of the same molecule?
Its Activity is “Non-toxic”.

What about the Activity (HEp-2) of the same molecule?
Its Activity is “Non-toxic”.

What about the Activity (Daoy) of the same molecule?
The Activity was “Non-toxic”.

For `C=C1C[C@H]2O[C@H]([C@@H]3[C@@H](C(C)C)[C@H](OC(C)=O)[C@H](OC(C)=O)[C@@]4(CO4)[C@@H]32)[C@](C)(OC(C)=O)CC[C@@H]1O` (relative stereo), which Activity (HeLa) is on record?
Its Activity is “Non-toxic”.

What about the Activity (MCF7) of the same molecule?
Its Activity is “Non-toxic”.

And the Activity (RAW264.7 [1])?
Its Activity is 42.1%.

What about the Activity (HEp-2) of the same molecule?
Its Activity is “Non-toxic”.

What about the Activity (Daoy) of the same molecule?
Its Activity is “Non-toxic”.

`CC(=O)O[C@H]1[C@H](C(C)C)[C@@H]2[C@@H]([C@H]3C[C@](C)(O)[C@@H](OC=O)CC[C@@](C)(OC(C)=O)[C@@H]2O3)[C@]2(CO2)[C@H]1OC(C)=O` [KLYMOLLIN H] was tested. Which Activity (HeLa) did it give?
The Activity was “Non-toxic”.

And the Activity (MCF7)?
Its Activity is “Non-toxic”.

What about the Activity (RAW264.7 [1]) of the same molecule?
The Activity was 32.6%.

And the Activity (HEp-2)?
The Activity was “Non-toxic”.

And the Activity (Daoy)?
The Activity was “Non-toxic”.

For `CC(=O)O[C@H]1[C@H](C(C)C)[C@@H]2[C@@H]([C@H]3C[C@@H](C)C(=O)CC[C@@](C)(OC(C)=O)[C@@H]2O3)[C@](O)(CCl)[C@H]1OC(C)=O` [KLYMOLLIN A], which Activity (HeLa) is on record?
Its Activity is “Non-toxic”.

And the Activity (MCF7)?
The Activity was “Non-toxic”.

What about the Activity (HEp-2) of the same molecule?
The Activity was “Non-toxic”.

And the Activity (Daoy)?
Its Activity is “Non-toxic”.

For `CCCCCCCCCCCCCC(=O)O[C@H]1CC[C@@](C)(OC(C)=O)[C@@H]2O[C@H](C[C@]1(C)O)[C@@H]1[C@H]2[C@@H](C(C)C)[C@H](OC(C)=O)[C@H](OC(C)=O)[C@@]12CO2` (relative stereo), which Activity (HeLa) is on record?
The Activity was “Non-toxic”.

What about the Activity (MCF7) of the same molecule?
The Activity was “Non-toxic”.

And the Activity (RAW264.7 [1])?
Its Activity is 6%.

What about the Activity (RAW264.7 [2]) of the same molecule?
The Activity was 8.5%.

What about the Activity (HEp-2) of the same molecule?
The Activity was “Non-toxic”.

What about the Activity (Daoy) of the same molecule?
The Activity was “Non-toxic”.
